Our source for the IC50 and Ki values is US8247420B2, “Compositions, synthesis, and methods of using quinolinone based atypical antipsychotic agents” (Reviva Pharmaceuticals, Inc., priority 2007, dated 2012).

Structures can show the parent of a compound that is named as a salt.

In general, IC50 refers to the point on the concentration scale where inhibition reaches its midpoint. Usually Ki stands for the dissociation constant of the complex between target and ligand, obtained from inhibition or displacement.

Test [1] concerns the target T1, Serotonin, 5HT1A (human recombinant) (Homo sapiens, UniProt P08908).
T1 construct: expressed in transfected cells; host or cells: HEK-293 cells
T1 sequence (P08908 1-422): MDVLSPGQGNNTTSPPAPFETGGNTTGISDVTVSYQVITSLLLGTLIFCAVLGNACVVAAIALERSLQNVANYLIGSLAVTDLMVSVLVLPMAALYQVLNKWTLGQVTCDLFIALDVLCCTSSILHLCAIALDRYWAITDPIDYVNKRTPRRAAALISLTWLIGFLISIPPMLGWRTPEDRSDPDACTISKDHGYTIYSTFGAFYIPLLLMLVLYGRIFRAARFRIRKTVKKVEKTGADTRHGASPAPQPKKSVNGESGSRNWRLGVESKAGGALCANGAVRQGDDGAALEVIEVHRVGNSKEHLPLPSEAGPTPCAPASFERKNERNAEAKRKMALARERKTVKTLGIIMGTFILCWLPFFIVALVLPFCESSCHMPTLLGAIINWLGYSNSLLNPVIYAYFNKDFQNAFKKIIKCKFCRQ
In words: Serotonin, 5HT1A (human recombinant) radioligand binding assay ([3H]-8-OH-DPAT). To be noted: human recombinant in HEK-293 cells. Here is the method: The reactions were carried out in 50 mM TRIS-HCl (pH 7.4) containing 10 mM MgSO4, 0.5 mM EDTA and 0.1% Ascorbic acid at room temperature for 1 hour. The reaction was terminated by rapid vacuum filtration onto glass fiber filters. Radioactivity trapped onto the filters was determined and compared to control values in order to ascertain any interactions of test compounds with the cloned serotonin-5HT1A binding site (Literature Reference: Hoyer, D. et al. Eur. Journal Pharmacol. 1985, 118, 13-23; Schoeffter, P. and Hoyer, D. Naunyn-Schmiedeberg's Arch. Pharmac. 1989, 340, 135-138)
(§1) The radioligand binding assays for dopamine-D2S and serotonin-5HT1A were carried out at six different concentrations and the test concentrations were 1 nM, 5 nM, 10 nm 50 nM, 100 nM and 500 nM. The radioligand binding assays for serotonin-5HT2A were carried out at seven different concentrations and the test concentrations were 5 nM, 10 nM, 50 nM, 100 nM, 500 nM, 1 uM, and 300 uM.

Another test has as its target Serotonin, 5HT2A (human) (Homo sapiens, UniProt P28223). In words: Serotonin, 5HT2A (human) radioligand binding assay ([3H]-Ketanserin). The note with it: human cortex. Here is the method: The reactions were carried out in 50 mM TRIS-HCl (pH 7.6) at room temperature for 90 minutes. The reaction was terminated by rapid vacuum filtration onto glass fiber filters. Radioactivity trapped onto the filters was determined and compared to control values in order to ascertain any interactions of test compounds with the serotonin-5HT2A binding site (Literature Reference: Leysen, J. E. et al. Mol. Pharmacol. 1982, 21, 301-314; Martin, G. R. and Humphrey, P. P. A. Neuropharmacol. 1994, 33(3/4), 261-273.)
as §1

Test [2] has as its target T2, Dopamine, D2S (human recombinant) (Homo sapiens, UniProt P14416).
T2 construct: expressed in transfected cells; host or cells: CHO cells
Briefly: Dopamine, D2S (human recombinant) radioligand binding assay ([3H]Spiperone). To be noted: human recombinant in CHO cells. How it is done: The reactions were carried out in 50 mM TRIS-HCl (pH 7.4) containing 120 mM NaCl, 5 mM KCl, 5 mM MgCl2, 1 mM EDTA for 60 minutes at 25 C. The reaction was terminated by rapid vacuum filtration onto glass fiber filters. Radioactivity trapped onto the filters was determined and compared to control values in order to ascertain any interactions of test compounds with the cloned dopamine-D2 short binding site (Literature Reference: Jarvis, K. R. et al. Journal of Receptor Research 1993, 13(1-4), 573-590; Gundlach, A. L. et al. Life Sciences 1984, 35, 1981-1988.)
as §1

T2 sequence (P14416 1-414 isoform P14416-2): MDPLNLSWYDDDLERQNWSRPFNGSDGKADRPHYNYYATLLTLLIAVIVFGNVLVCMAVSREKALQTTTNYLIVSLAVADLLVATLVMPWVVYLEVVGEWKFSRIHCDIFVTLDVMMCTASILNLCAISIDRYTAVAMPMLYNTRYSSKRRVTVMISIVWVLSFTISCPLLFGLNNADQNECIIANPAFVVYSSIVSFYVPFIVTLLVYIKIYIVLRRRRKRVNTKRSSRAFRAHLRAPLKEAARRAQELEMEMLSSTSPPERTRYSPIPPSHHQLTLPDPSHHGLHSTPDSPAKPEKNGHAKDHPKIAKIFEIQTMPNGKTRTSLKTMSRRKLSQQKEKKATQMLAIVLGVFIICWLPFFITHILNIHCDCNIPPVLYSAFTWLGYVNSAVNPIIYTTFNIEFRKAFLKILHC
Serotonin, 5HT2A (human), sequence (P28223 whole entry): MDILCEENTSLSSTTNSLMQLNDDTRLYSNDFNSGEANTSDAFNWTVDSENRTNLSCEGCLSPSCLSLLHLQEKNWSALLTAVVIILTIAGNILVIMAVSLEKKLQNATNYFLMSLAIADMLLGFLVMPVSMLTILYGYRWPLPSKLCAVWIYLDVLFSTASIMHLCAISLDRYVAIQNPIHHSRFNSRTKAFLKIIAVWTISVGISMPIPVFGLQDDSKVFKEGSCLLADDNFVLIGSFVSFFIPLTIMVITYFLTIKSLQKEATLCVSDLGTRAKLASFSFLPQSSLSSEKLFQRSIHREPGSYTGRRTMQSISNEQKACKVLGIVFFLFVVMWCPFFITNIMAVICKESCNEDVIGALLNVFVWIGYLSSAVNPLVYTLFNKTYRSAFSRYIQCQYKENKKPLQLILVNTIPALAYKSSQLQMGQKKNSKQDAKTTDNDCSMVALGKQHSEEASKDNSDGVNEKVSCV

Regarding `CCOC(=O)CCCOc1ccccc1N1CCN(CCCCOc2ccc3c(c2)NC(=O)CC3)CC1` [Compound 9a, Ethyl 4-(2-(4-(4-(2-oxo-1,2,3,4-tetrahydroquinolin-7-yloxy)butyl)piperazin-1-yl)phenoxy)butanoat hydrochloride], the IC50 was 6.61 nM in test [1]; 456 nM at Serotonin, 5HT2A (human); 5.83 nM in test [2]. The inhibitory constant (Ki) was found to be 3.93 nM in test [1]; 239 nM at Serotonin, 5HT2A (human); 1.69 nM in test [2].

As for `O=C1CCc2ccc(C(=O)OCCCN3CCN(c4cccc(Cl)c4Cl)CC3)cc2N1` [Compound 24b, 3-(4-(2,3-Dichlorophenyl)piperazin-1-yl)propyl 2-oxo-1,2,3,4-tetrahydroquinoline-7-carboxylate hydrochloride], the IC50 was 28 nM in test [1]; 253 nM on Serotonin, 5HT2A (human); 72.9 nM in test [2]. In addition, the Ki in test [1] stood at 16 nM; on Serotonin, 5HT2A (human), 147 nM; in test [2] it was 17 nM.

Turning to `O=C1CCc2ccc(COC(=O)CCCN3CCN(c4cccc(Cl)c4Cl)CC3)cc2N1` [Compound 39d, (2-Oxo-1,2,3,4-tetrahydroquinolin-7-yl)methyl 4-(4-(2,3-dichlorophenyl)piperazin-1-yl)butanoate], the IC50 in test [1] worked out at 85 nM; at Serotonin, 5HT2A (human) it was 313 nM; in test [2] it was 54.7 nM. Further, the Ki in test [1] was 48.5 nM; on Serotonin, 5HT2A (human), 171 nM; in test [2], 12.8 nM.
